Counter-ions that a name gives are not always drawn. Like-named read-outs stand apart in the source and are kept apart here.
Key:
[1] = system: aortic strips isolated from rabbits (contractions induced by noradrenaline); test: In vitro alpha-blocking activity: antagonism of noradrenaline-induced contractions of aortic strips; assay type: cell-based; settings: Oryctolagus cuniculus, read-out: CI 50 (50% inhibition of standard contraction induced by noradrenaline), noradrenaline 2×10^-6 M/l
Experimental: In vitro alpha-blocking activity is determined by the antagonism of contractions of aortic strips isolated from rabbits. The contractions are induced by noradrenaline at a concentration of 2×10^-6 M/l. The technique utilized is derived from that of Furchgott and Bhadrakom (J. Pharmacol., 1953, 108, 129-43). The agonist is introduced in the bath 30 seconds or 14 minutes after the addition of the antagonist.

in vivo = settings: mouse; for mortality: oral, Swiss mice, solvent varies by compound, read-out: Percentage mortality
Experimental: The toxicity of the compounds described in the present invention was determined by performing tests with Swiss mice. The animals, free of specific pathogenic organisms, are kept in an air-conditioned room for 24 to 48 hours before the beginning of the experiment. The animals are divided into groups consisting of 5 males and 5 females. The substances are administered with the appropriate carrier in a volume corresponding to 0.1 ml per 10 g of animal weight.
The following tables display the LD 50 determined for each compound, for oral and intraperitoneal administration, by utilizing the method described by J. C. Cazin (Bull. Soc. Pharm. Lille, 1972, 4, 187). In case the LD 50 could not be measured, the mortality percentages produced by various doses are reported.

[2] = system: hypertension induced by phenylephrine; test: In vivo alpha-blocking activity: antagonism of hypertension induced by phenylephrine, intravenous, amyelic rats; settings: for inhibition in vivo at 0.2 mg/kg / inhibition in vivo at 1.6 mg/kg / inhibition in vivo at 3.2 mg/kg: Rattus norvegicus, iv, read-out: % of maximum activity (percentage inhibition); for time for the residual activity to become 50% of the maximum activity: i.v.
Experimental: (§1) The in vivo alpha-blocking activity is estimated by the measurement of the antagonism of hypertension induced by phenylephrine. For intravenous administration, amyelic rats with both vagus nerves removed according to the technique of J. S. Gillespie and T. C. Muir (Br. J. Pharmac. Chemother., 1967, 30, 78-87) are used. The alpha-blocking agents are administered at doses of 0.2, 1.6 and 3.2 mg/kg.

unwashed human platelets = test: Prevention of the aggregation of human platelets (plasma rich in platelets); assay type: cell-based; settings: Platelet
Experimental: The studies were carried out with platelets in their natural surroundings (plasma rich in platelets). The inhibiting agent was tested in the presence of four types of aggregating agents (ADP, adrenalin, collagen, arachidonic acid) at various concentrations.
For each case, a dose-response curve was established.

[3] = system: rats of Okamoto stock that are spontaneously hypertensive; test: Antihypertensive activity in spontaneously hypertensive rats; assay type: in vivo; settings: i.v., 0.1 mg/kg; from 135 mm of mercury; anesthetized with pentobarbital
Experimental: (§2) For oral administration, male rats kept awake and fitted with catheters implanted in the carotid artery and in the jugular vein are used. Compound COR 28 11 results in a maximum activity of 56.7±10.25% at a dose of 5 mg/kg. After 60 minutes, the activity is still 30%. The antihypertensive activity is determined on rats of Okamoto stock that are spontaneously hypertensive and anesthesized with pentobarbital. A dose of 0.1 mg/kg of compound COR 28 11 administered intravenously causes the average blood pressure to go from 135 to 106 mm of mercury.

[4] = system: hypertension induced by phenylephrine; test: In vivo alpha-blocking activity: antagonism of hypertension induced by phenylephrine, oral, awake male rats; settings: 5 mg/kg
Experimental: as §1, §2

[5] = agonist 30 seconds after antagonist (not flagged with *)
[6] = read-out: I 50 (50% inhibition of platelet aggregation), ADP 1.25μM/l
[7] = read-out: I 50 (50% inhibition of platelet aggregation), ADP 2.5μM/l
[8] = read-out: I 50 (50% inhibition of platelet aggregation), adrenalin 1μM/l
[9] = read-out: I 50 (50% inhibition of platelet aggregation), adrenalin 5μM/l
[10] = read-out: I 50 (50% inhibition of platelet aggregation), arachidonic acid 5·10^-4 M/l
[11] = read-out: I 50 (50% inhibition of platelet aggregation), arachidonic acid 10^-3 M/l
[12] = read-out: I 50 (50% inhibition of platelet aggregation), collagen 50μg/ml

| SMILES | IC50 [1, 5] [µM] | LD50 (in vivo; ip) [mg/kg] | LD50 (in vivo; po) [mg/kg] | inhibition in vivo at 1.6 mg/kg ([2]; 1.6 mg/kg) [%] | time for the residual activity to become 50% of the maximum activity ([2]; 1.6 mg/kg, given in m and s) [min] | inhibition in vivo at 3.2 mg/kg ([2]; 3.2 mg/kg) [%] | also measured |
| --- | --- | --- | --- | --- | --- | --- | --- |
| COc1cccc(OC)c1OCCN(C)CCOc1cc(C)c(O)cc1C(C)C [COR 28 22, hydrochloride of 4-[N-(2,6-dimethoxyphenoxyethyl)-N-methylaminoethoxy]-5-isopropyl-2-methylphenol] | 0.178 | 66.2 | 316 | 112 ± 7.3 | 120 | – | inhibition in vivo at 0.2 mg/kg ([2]; 0.2 mg/kg): 91.1 ± 3.46%; time for the residual activity to become 50% of the maximum activity ([2]; 0.2 mg/kg): 35 min |
| Cc1cc(OCCNCCCc2ccccc2)c(C(C)C)cc1O [COR 28 21, hydrochloride of 5-isopropyl-2-methyl-4-[N-(3-phenylpropyl)aminoethoxy]phenol] | 11.7 | 84.6 | 359 | 73.4 ± 6.99 | 50 | – | – |
| CC(=O)Oc1cc(C(C)C)c(OCCN(C)CC2COc3ccccc3O2)cc1C (centres unmarked) [COR 28 13, hydrochloride of N-[(4-acetoxy-2-isopropyl-5-methyl)phenoxyethyl]-N-methyl-[2-(1,4-benzodioxane)]methylamine] | 252 | 600 | – | 46.1 ± 6.01 | – | 61.1 ± 6.4 | mortality (in vivo; 1000 mg/kg): 0%; mortality (in vivo; 2000 mg/kg): 20% |
| COc1cc(C(C)C)c(OCCN(C)CCOc2c(OC)cccc2OC)cc1C [drawing 28] | – | – | – | – | – | – | IC50 (unwashed human platelets; [6]): 70 µM; IC50 (unwashed human platelets; [7]): 74 µM; IC50 (unwashed human platelets; [8]): 16 µM; IC50 (unwashed human platelets; [9]): 40 µM; IC50 (unwashed human platelets; [10]): > 100 µM; IC50 (unwashed human platelets; [11]): > 100 µM; IC50 (unwashed human platelets; [12]): 100 µM |
| Cc1cc(OCCN(C)CC2COc3ccccc3O2)c(C(C)C)cc1O (centres unmarked) [COR 28 12, hydrochloride of N-[(4-hydroxy-2-isopropyl-5-methyl)phenoxyethyl]-N-methyl-[2-(1,4-benzodioxane)]methylamine] | 90 | 350 | 1430 | 59.1 ± 7.5 | – | 65.7 ± 4.5 | – |
| COc1cc(C(C)C)c(OCCN(C)CCOc2c(OC)cccc2OC)cc1C [COR 28 11, hydrochloride of N-(2,6-dimethoxyphenoxyethyl)-N-methyl-2-[(2-isopropyl-4-methoxy-5-methyl)phenoxy]ethylamine] | – | 93 | 546 | 61.8 ± 4.9 | > 60 | 74.6 ± 4.4 | average blood pressure after administration [3]: 106 mm of mercury; IC50 ([1]; 14 min, contact time 14 min): 21.6 µM; time for the residual activity to become 50% of the maximum activity ([2]; 3.2 mg/kg, given in m and s): 60 min; maximum activity [4]: 56.7±10.25%; activity after 60 minutes ([4]; after 60 minutes): 30% |
| Cc1cc(OCCNCC2COc3ccccc3O2)c(C(C)C)cc1O (centres unmarked) [COR 28 14, hydrochloride of N-[(4-hydroxy-2-isopropyl-5-methyl)phenoxyethyl]-[2-(1,4-benzodioxane)]methylamine] | 6 | 174 | 952 | 92 ± 2.45 | – | 100 | time for the residual activity to become 50% of the maximum activity ([2]; 3.2 mg/kg, given in m and s): > 60 min |
| COc1cc(C(C)C)c(OCCNCCOc2ccccc2)cc1C [COR 28 10, hydrochloride of N-phenoxyethyl-2-[(2-iso-propyl-4-methoxy-5-methyl)phenoxy]ethylamine] | 350 | 81 | – | 66.3 ± 1.83 | – | 77 | mortality (in vivo; 1000 mg/kg): 20% |
| CC(=O)Oc1cc(C(C)C)c(OCCN(C)C)cc1C [Moxisylyte, reference compound] | 17 | 73 | 225 | 83.1 ± 5.71 | – | 82.6 ± 4.54 | – |
| Cc1cc(OCCN(C)CCCc2ccccc2)c(C(C)C)cc1O [COR 28 23, hydrochloride of 5-isopropyl-2-methyl-4-[N-methyl-N-(3-phenylpropyl)aminoethoxy]phenol] | 2.7 | 154 | 615 | 81.1 ± 2.35 | 20 | – | – |
| Cc1cc(OCCNCC2COc3ccccc3O2)c(C(C)C)cc1O (centres unmarked) [drawing 29] | – | – | – | – | – | – | IC50 (unwashed human platelets; [6]): 60 µM; IC50 (unwashed human platelets; [7]): 58 µM; IC50 (unwashed human platelets; [8]): 24 µM; IC50 (unwashed human platelets; [9]): 50 µM; IC50 (unwashed human platelets; [10]): 15 µM; IC50 (unwashed human platelets; [11]): 54 µM; IC50 (unwashed human platelets; [12]): 52 µM |
| COc1cccc(OC)c1OCCNCCOc1cc(C)c(O)cc1C(C)C [COR 28 25, hydrochloride of 4-[N-(2,6-dimethoxyphenoxyethyl)aminoethoxy]-5-isopropyl-2-methylphenol] | – | – | – | 94.8 ± 2.22 | 120 | – | inhibition in vivo at 0.2 mg/kg ([2]; 0.2 mg/kg): 70.2 ± 4.89%; time for the residual activity to become 50% of the maximum activity ([2]; 0.2 mg/kg): 20 min |
| COc1cc(C(C)C)c(OCCN(C)CCOc2ccccc2)cc1C [COR 28 09, hydrochloride of N-methyl-N-phenoxyethyl-2-[(2-isopropyl-4-methoxy-5-methyl)phenoxy]ethylamine] | 260 | 200 | – | 51.4 ± 5.1 | – | 74.7 ± 5.2 | mortality (in vivo; 1000 mg/kg): 0% |

— patent publication US4818772A, “Derivatives of 4-aminoethoxy-5-isopropyl-2-methylbenzenes: methods of synthesis and utilization as medicines” (Societe Cortial S.A., priority 1981, dated 1989)
